According to article doi:10.1101/2022.03.22.485260v1 (biorxiv, 2022):
Where two headings read alike, the source gives them in different places.

Tests used:
[1] = target: T1, hTMPK (thymidylate kinase) (Homo sapiens, UniProt P23919); test: NADH-coupled; format: biochemical
T1 sequence (P23919 2-212): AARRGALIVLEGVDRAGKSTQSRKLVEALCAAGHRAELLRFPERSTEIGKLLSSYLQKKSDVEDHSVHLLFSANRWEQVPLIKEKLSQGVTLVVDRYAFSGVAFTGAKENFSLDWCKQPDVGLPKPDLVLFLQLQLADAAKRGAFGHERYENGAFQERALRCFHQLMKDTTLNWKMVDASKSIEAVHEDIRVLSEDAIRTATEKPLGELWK

[2] = target: T1, hTMPK (thymidylate kinase); test: NADH-coupled assay, […] min pre-incubation, non-linear fit; format: biochemical; settings: ATP varied 0-200 μM, 500 μM TMP; mixed inhibition; pH 7.5, 25 °C

Molecule	IC50 [1] [nM]	Ki [2] [nM]	IC50 ([1]; 500 μM ATP, 500 μM dTMP, 10 mM MgCl2, pH 7.5, 25 °C) [nM]
CC(C)(C)OC(=O)N1CCN(C(=O)Cn2sc3ccccc3c2=O)CC1 [JMF2977]	500		
Tert-butyl 4-(2-(5-fluoro-3-oxobenzo[d]isothiazol-2(3H)-yl) acetyl) piperazine-1-carboxylate [JMF4073]		5	160
